Earlier results on 1 compound are cited in patent publication US12642772B2, “Triptolide formulations” (MINNEAMRITA THERAPEUTICS LLC, priority 2024, dated 2026).

Take `CC(C)[C@]12O[C@H]1[C@@H]1O[C@]13[C@]1(O[C@H]1C[C@H]1C4=C(CC[C@@]13C)C(=O)OC4)[C@@H]2O` [triptolide, Triptolide]: the solubility in water result is “approximately 0.017 mg/mL”.
